Results on 22 molecules are retold here after PubChem BioAssay AID330 (DTP/NCI, 2004).

Structures are written as SMILES. Where “and” joins values, the source holds several entries; their conditions need not be identical. Equal entries are not always repeated. Toxic doses and inconclusive results are not listed.

This assay deals with P388 leukemia ip, CD2F1 mice, survival T/C. As to the kind of experiment: NCI In Vivo Anticancer Drug Screen. Data for tumor model P388 Leukemia (intraperitoneal) in CD2F1 (CDF1) mice. As to conditions: endpoint: median survival time, higher = longer survival. The method in brief: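 Mice carrying the transplanted tumor received test compound or vehicle. Survival was recorded in each group, and the value is the treated-group measurement divided by that of the vehicle-treated control group.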

Where [1] appears, read: dose: 50.0 mg/kg/injection, schedule: Q01DX009 (ip), vehicle: saline with Tween-80.
[2] abbreviates: dose: 60.0 mg/kg/injection, schedule: Q01DX005 (ip), vehicle: saline with Tween-80.
[3] abbreviates: dose: 120.0 mg/kg/injection, schedule: Q01DX005 (ip), vehicle: saline with Tween-80.
[4] abbreviates: dose: 240.0 mg/kg/injection, schedule: Q01DX005 (ip), vehicle: saline with Tween-80.
The mark [5] stands for this setting: dose: 100.0 mg/kg/injection, schedule: Q01DX009 (ip), vehicle: saline with Tween-80.
The mark [6] stands for this setting: dose: 60.0 mg/kg/injection, schedule: Q01DX005 (ip), vehicle: saline.
The mark [7] stands for this setting: dose: 60.0 mg/kg/injection, schedule: Q01DX005 (ip), vehicle: Klucel (hydroxypropylcellulose) (HPC).
Setting [8] is: dose: 120.0 mg/kg/injection, schedule: Q01DX005 (ip), vehicle: Klucel (hydroxypropylcellulose) (HPC).
Where [9] appears, read: dose: 240.0 mg/kg/injection, schedule: Q01DX005 (ip), vehicle: Klucel (hydroxypropylcellulose) (HPC).

Take `Cc1[nH]nc(C(N)=O)c1N=NN(C)C`: the T/C (dose: 12.5 mg/kg/injection, schedule: Q01DX009 (ip), vehicle: saline with Tween-80) is 113 % of control; the T/C under setting [1] was 204 % of control and 209 % of control; the T/C (dose: 50.0 mg/kg/injection, schedule: Q04DX003 (ip), vehicle: saline with Tween-80) is 122 % of control; the T/C (dose: 100.0 mg/kg/injection, schedule: Q04DX003 (ip), vehicle: saline with Tween-80) was 150 % of control; the T/C (dose: 132.0 mg/kg/injection, schedule: Q04DX003 (ip), vehicle: saline with Tween-80) is 159 % of control; the T/C (dose: 200.0 mg/kg/injection, schedule: Q04DX003 (ip), vehicle: saline with Tween-80) is 154 % of control.

Consider `COc1cc2c(cc1OC)C(CC1CCN(C)CC1)NCC2` (centres undefined), for which the T/C is 106 % of control (dose: 50.0 mg/kg/injection, schedule: Q01DX005 (ip), vehicle: saline); 103 % of control (dose: 100.0 mg/kg/injection, schedule: Q01DX005 (ip), vehicle: saline); 103 % of control (dose: 200.0 mg/kg/injection, schedule: Q01DX005 (ip), vehicle: saline).

For `O=C1NC(=O)N(/N=C/c2ccc(-c3ccc(Cl)c(Cl)c3)o2)C1O` (centres undefined), the T/C is 100 % of control (dose: 50.0 mg/kg/injection, schedule: Q04DX002 (ip), vehicle: saline with Tween-80); 99 % of control (dose: 100.0 mg/kg/injection, schedule: Q04DX002 (ip), vehicle: saline with Tween-80); 101 % of control (dose: 200.0 mg/kg/injection, schedule: Q04DX002 (ip), vehicle: saline with Tween-80).

Turning to `c1ccc2c(c1)ccc1[nH]c3ccc4ccccc4c3c12`, the T/C is 100 % of control and 109 % of control and 111 % of control (dose: 1.56 mg/kg/injection, schedule: Q01DX005 (ip), vehicle: Klucel (hydroxypropylcellulose) (HPC)); 107 % of control and 116 % of control and 117 % of control (dose: 3.12 mg/kg/injection, schedule: Q01DX005 (ip), vehicle: Klucel (hydroxypropylcellulose) (HPC)).

Take `CC(C)C1OC(=O)C=C1Sc1ccccc1` (centres undefined): the T/C reads like this: (dose: 50.0 mg/kg/injection, schedule: Q01DX005 (ip), vehicle: saline with Tween-80) 100 % of control; (dose: 100.0 mg/kg/injection, schedule: Q01DX005 (ip), vehicle: saline with Tween-80) 99 % of control; (dose: 200.0 mg/kg/injection, schedule: Q01DX005 (ip), vehicle: saline with Tween-80) 114 % of control.

With `CCCCC1CN=C(OCC)N1` (centres undefined), the T/C by setting is: (dose: 6.25 mg/kg/injection, schedule: Q01DX005 (ip), vehicle: saline with Tween-80) 104 % of control; (dose: 12.5 mg/kg/injection, schedule: Q01DX005 (ip), vehicle: saline with Tween-80) 98 % of control.

On to `COc1cc([N+](=O)[O-])c(S(=O)(=O)O)cc1NS(=O)(=O)c1ccc(C)cc1`, for which the T/C is, setting by setting: under setting [2], 110 % of control; under setting [3], 101 % of control; under setting [4], 97 % of control.

`O=C1SC(Nc2ccccc2)/C(=N\N=C2/C(Nc3ccccc3)SC(=O)N2Cc2ccccc2)N1Cc1ccccc1` (centres undefined): the T/C by setting is: (dose: 100.0 mg/kg/injection, schedule: Q04DX002 (ip), vehicle: Klucel (hydroxypropylcellulose) (HPC)) 86 % of control; (dose: 200.0 mg/kg/injection, schedule: Q04DX002 (ip), vehicle: Klucel (hydroxypropylcellulose) (HPC)) 94 % of control; (dose: 400.0 mg/kg/injection, schedule: Q04DX002 (ip), vehicle: Klucel (hydroxypropylcellulose) (HPC)) 91 % of control.

As for `COc1ccc(-n2c(-c3ccc(-n4c(C)nc5ccccc5c4=O)cc3)n[nH]c2=S)cc1`, the T/C by setting is: (dose: 37.5 mg/kg/injection, schedule: Q01DX005 (ip), vehicle: Klucel (hydroxypropylcellulose) (HPC)) 102 % of control; (dose: 75.0 mg/kg/injection, schedule: Q01DX005 (ip), vehicle: Klucel (hydroxypropylcellulose) (HPC)) 105 % of control; (dose: 150.0 mg/kg/injection, schedule: Q01DX005 (ip), vehicle: Klucel (hydroxypropylcellulose) (HPC)) 104 % of control.

For `CCCCCCCCCCCCCCCCCC(=O)CC(=O)C(F)(F)F`, the T/C was 100 % of control (dose: 50.0 mg/kg/injection, schedule: Q01DX009 (ip), vehicle: saline); 99 % of control (dose: 100.0 mg/kg/injection, schedule: Q01DX009 (ip), vehicle: saline); 99 % of control (dose: 200.0 mg/kg/injection, schedule: Q01DX009 (ip), vehicle: saline).

On to `Cc1c(-c2ccccc2)noc1-c1ccccc1`, for which the T/C was 106 % of control (dose: 100.0 mg/kg/injection, schedule: Q04DX003 (ip), vehicle: saline); 102 % of control (dose: 200.0 mg/kg/injection, schedule: Q04DX003 (ip), vehicle: saline); 101 % of control (dose: 400.0 mg/kg/injection, schedule: Q04DX003 (ip), vehicle: saline).

For the molecule `C=C1C(=O)OC2/C=C(\C)CC/C=C(\C=O)C(OC(=O)C(C)C)C(OC(=O)C(C)(C)O)C12` (centres undefined), the T/C reads like this: (dose: 5.0 mg/kg/injection, schedule: Q01DX009 (ip), vehicle: other) 116 % of control; (dose: 10.0 mg/kg/injection, schedule: Q01DX009 (ip), vehicle: other) 112 % of control; (dose: 20.0 mg/kg/injection, schedule: Q01DX009 (ip), vehicle: other) 112 % of control.

Regarding `O=C(OCC(Cl)(Cl)Cl)N1CCCCC1`, the T/C is 98 % of control (dose: 25.0 mg/kg/injection, schedule: Q01DX009 (ip), vehicle: saline with Tween-80); 92 % of control under setting [1]; 102 % of control under setting [5].

As for `CC(C)Oc1nc(N2CCNCC2)nc2c1CCC2`, the T/C (dose: 15.0 mg/kg/injection, schedule: Q01DX005 (ip), vehicle: saline) was 101 % of control; the T/C (dose: 30.0 mg/kg/injection, schedule: Q01DX005 (ip), vehicle: saline) is 94 % of control; the T/C under setting [6] was 101 % of control.

As for `CC/C(=N/N(C)C)C(=O)OC(C)(C)C`, the T/C is, setting by setting: under setting [6], 95 % of control; (dose: 120.0 mg/kg/injection, schedule: Q01DX005 (ip), vehicle: saline) 93 % of control; (dose: 240.0 mg/kg/injection, schedule: Q01DX005 (ip), vehicle: saline) 90 % of control.

Consider `CC1(C)CN(C(C)(C)C)CC(C)(C)C(O)C1=O` (centres undefined), for which the T/C was 100 % of control (dose: 100.0 mg/kg/injection, schedule: Q01DX001 (ip), vehicle: saline with Tween-80); 118 % of control (dose: 200.0 mg/kg/injection, schedule: Q01DX001 (ip), vehicle: saline with Tween-80); 104 % of control (dose: 400.0 mg/kg/injection, schedule: Q01DX001 (ip), vehicle: saline with Tween-80).

`NC(Cc1cc(I)c(Oc2cc(I)c(O)c(I)c2)c(I)c1)C(=O)O` (centres undefined): the T/C (dose: 0.25 mg/kg/injection, schedule: Q01DX009 (ip), vehicle: saline) is 99 % of control; the T/C (dose: 0.5 mg/kg/injection, schedule: Q01DX009 (ip), vehicle: saline) is 103 % of control; the T/C (dose: 1.0 mg/kg/injection, schedule: Q01DX009 (ip), vehicle: saline) was 99 % of control; the T/C (dose: 2.0 mg/kg/injection, schedule: Q01DX009 (ip), vehicle: saline) is 94 % of control; the T/C (dose: 4.0 mg/kg/injection, schedule: Q01DX009 (ip), vehicle: saline) was 88 % of control.

As for `CCC(=O)O[C@H]1CC[C@H]2[C@@H]3C[C@H](F)C4=CC(=O)CC[C@]4(C)[C@H]3CC[C@]12C`, the T/C is 100 % of control under setting [1]; 100 % of control under setting [5]; 100 % of control (dose: 200.0 mg/kg/injection, schedule: Q01DX009 (ip), vehicle: saline with Tween-80).

With `O=C(Nc1c(Cl)cccc1Cl)OCCOc1ccc(Cl)cc1Cl`, the T/C by setting is: under setting [7], 99 % of control; under setting [8], 96 % of control; under setting [9], 99 % of control.

In the case of `O=C1C(F)=C(N2CC2)C(=O)C(F)=C1N1CC1`, the T/C by setting is: (dose: 1.56 mg/kg/injection, schedule: Q01DX009 (ip), vehicle: saline) 115 % of control; (dose: 3.12 mg/kg/injection, schedule: Q01DX009 (ip), vehicle: saline) 114 % of control; (dose: 6.25 mg/kg/injection, schedule: Q01DX009 (ip), vehicle: saline) 150 % of control.

`CCOC1(C)Oc2cc3c(cc2C(c2cc(OC)c(OC)c(OC)c2)C1C)OCO3` (centres undefined): the T/C was 96 % of control under setting [7], 100 % of control under setting [8] and 98 % of control under setting [9].

Regarding `COc1cc(C(c2c(O)c3ccccc3oc2=O)N2CCCC2)cc(OC)c1OC` (centres undefined), the T/C by setting is: under setting [2], 107 % of control; under setting [3], 101 % of control; under setting [4], 104 % of control.
